# Legend:
# [1] = test system: FGFR2-overexpressed SNU-16 gastric cancer cell line derived xenograft tumors; format: in vivo; conditions: 10 mg/kg oral BID
# Description: The cells were harvested in 90% confluence and no less than 90% viability, and then counted. […] Mice were inoculated subcutaneously into the right flank with 200 uL of 8×10^6 SNU-16 cells resuspended in 50% Matrigel (purchased from Corning). […] Dosing was initiated on day 0 and effects on tumor growth were evaluated by measuring the percentage of tumor growth inhibition (TGI) at the end of the study. Tolerability was assessed by body weight loss, lethality, and clinical signs of adverse treatment-related side effects. Tumor volume and body weight were measured twice per week during the administration period. The percentage of TGI was determined on day 25 after treatment. The difference between the mean value of tumor volume in the treatment group and that in the vehicle group was analyzed for significance using one-way ANOVA (followed by Dennett's test) at each time point and a P<0.05 was considered to be statistically significant.
# [2] = molecular target: human recombinant FGFR3 catalytic domain protein (amino acid 399-806) (Homo sapiens (Human), UniProt P22607); test: FGFR3 activity inhibition test (HTRF kinase assay); format: biochemical; conditions: 90 μM ATP
# Sequence of human recombinant FGFR3 catalytic domain protein (amino acid 399-806) (P22607 399-806): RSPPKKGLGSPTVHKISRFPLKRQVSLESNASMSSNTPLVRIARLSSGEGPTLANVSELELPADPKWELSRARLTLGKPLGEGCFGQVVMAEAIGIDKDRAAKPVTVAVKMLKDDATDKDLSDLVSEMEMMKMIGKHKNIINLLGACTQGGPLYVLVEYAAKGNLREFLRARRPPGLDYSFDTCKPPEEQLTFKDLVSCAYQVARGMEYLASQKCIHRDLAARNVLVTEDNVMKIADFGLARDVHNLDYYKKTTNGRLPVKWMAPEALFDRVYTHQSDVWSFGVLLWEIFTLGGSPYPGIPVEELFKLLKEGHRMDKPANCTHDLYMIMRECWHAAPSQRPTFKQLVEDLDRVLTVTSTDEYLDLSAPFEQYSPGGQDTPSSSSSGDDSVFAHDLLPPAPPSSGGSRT
# Description: (§1) The effect of the compounds of the present invention on the in vitro activity of FGFR was assessed by measuring the phosphorylation level of the substrate in a kinase reaction using the HTRF kinase assay kit (Table 1).
# (§2) If the IC50 value of a compound is very low, the initial concentration of the compound can be lowered.
# (§3) The IC50 value of the compound was calculated from the 10 concentration points using the XLfit software in Excel by the following formula: Y=Bottom+(Top−Bottom)/(1+10^((log IC50−X)*slope factor))
# (§4) Where Y is the percentage of inhibition, Bottom is the bottom platform value of the S-curve, Top is the top platform value of the S-curve, X is the logarithm of the concentration of the compound to be tested, and slope factor is the slope coefficient of the curve.
# [3] = test system: SNU-16 gastric cancer cell line; test: Inhibition on the proliferation of SNU-16 cells (luminescent cell viability assay); format: cell-based; conditions: Homo sapiens, 72 hours
# Description: (§5) CellTilter-Glo reagent (Promega, Cat. No. G7572) consists of CTG lyophilized powder and CTG buffer. Before use, the lyophilized powder needs to be dissolved in the buffer.
# (§6) After overnight incubation, 3 μL of DMEM diluted compound was added to each well, which was then gently centrifuged to mix well, and then the 384-well plate was placed in a 37° C., 5% CO2 incubator to continue the culture, and after 72 hours, the plate was taken out and allowed to stand at room temperature for 30 minutes, next added 15 μL of CTG reagent per well, which was warmed up to room temperature, the plate was shaken gently on a shaker for 3 minutes to ensure sufficient cell lysis, allowed to stand 10 minutes to stabilize the luminescence signal, and then read the luminescence signal with EnVision (Perkin Elmer).
# as §4
# The effect of the compounds of the present invention on cell proliferation of SNU-16 gastric cancer cell line was assessed using a luminescent cell viability assay (Table 2).
# (§7) For the experimental method, please refer to the method for determining the inhibition on the proliferation of Hep3B cells.
# [4] = molecular target: human recombinant FGFR2 catalytic domain protein (amino acid 400-821) (Homo sapiens (Human), UniProt P21802); test: FGFR2 activity inhibition test (HTRF kinase assay); format: biochemical; conditions: 50 μM ATP
# Sequence of human recombinant FGFR2 catalytic domain protein (amino acid 400-821) (P21802 400-821): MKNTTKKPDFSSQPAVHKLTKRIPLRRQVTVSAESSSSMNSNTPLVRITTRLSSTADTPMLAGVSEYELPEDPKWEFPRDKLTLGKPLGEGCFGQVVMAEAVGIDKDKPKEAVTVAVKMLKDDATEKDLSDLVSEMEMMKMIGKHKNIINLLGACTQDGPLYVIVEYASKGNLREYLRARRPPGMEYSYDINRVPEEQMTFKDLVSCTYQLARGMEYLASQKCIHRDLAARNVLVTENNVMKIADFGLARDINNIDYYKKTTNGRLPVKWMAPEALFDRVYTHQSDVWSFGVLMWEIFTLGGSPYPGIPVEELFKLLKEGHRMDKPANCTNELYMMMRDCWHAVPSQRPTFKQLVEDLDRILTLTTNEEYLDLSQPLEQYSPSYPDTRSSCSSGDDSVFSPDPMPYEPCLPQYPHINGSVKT
# Description: as §1, §2, §3, §4
# Hep3B hepatoma cell line = test: Inhibition on the proliferation of Hep3B cells (luminescent cell viability assay); format: cell-based; conditions: Homo sapiens, 72 hours
# Description: The effect of the compounds of the present invention on cell proliferation of Hep3B hepatoma cell line was assessed using a luminescent cell viability assay (Table 2).
# as §5, §6, §4
# [5] = molecular target: human recombinant FGFR1 catalytic domain protein (amino acid 308-731) (Homo sapiens (Human), UniProt P11362); test: FGFR1 activity inhibition test (HTRF kinase assay); format: biochemical; conditions: 40 μM ATP
# Sequence of human recombinant FGFR1 catalytic domain protein (amino acid 308-731) (P11362 other isoform, or with tags, fused parts or gaps): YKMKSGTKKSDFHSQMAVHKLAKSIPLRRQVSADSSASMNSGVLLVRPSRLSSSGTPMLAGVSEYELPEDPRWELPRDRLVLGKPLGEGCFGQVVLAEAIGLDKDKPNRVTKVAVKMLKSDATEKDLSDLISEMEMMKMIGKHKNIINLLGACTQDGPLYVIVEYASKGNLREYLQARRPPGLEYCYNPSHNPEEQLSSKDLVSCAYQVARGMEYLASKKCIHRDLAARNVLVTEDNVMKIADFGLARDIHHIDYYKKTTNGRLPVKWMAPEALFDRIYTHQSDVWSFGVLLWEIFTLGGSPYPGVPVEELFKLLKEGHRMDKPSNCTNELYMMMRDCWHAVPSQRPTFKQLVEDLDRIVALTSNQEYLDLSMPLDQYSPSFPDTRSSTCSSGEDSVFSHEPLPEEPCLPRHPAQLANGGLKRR
# Description: as §1, §2, §3, §4
# [6] = test system: RT4 bladder cancer cell line; test: Inhibition on the proliferation of RT4 cells (luminescent cell viability assay); format: cell-based; conditions: Homo sapiens, RT-4, 72 hours
# Description: as §5, §6, §4
# The effect of the compounds of the present invention on cell proliferation of the RT4 bladder cancer cell line was assessed using a luminescent cell viability assay (Table 2).
# as §7
# [7] = molecular target: human recombinant FGFR4 catalytic domain protein (amino acid 460-802) (Homo sapiens (Human), UniProt P22455); test: FGFR4 activity inhibition test (HTRF kinase assay); format: biochemical; conditions: 90 μM ATP
# Sequence of human recombinant FGFR4 catalytic domain protein (amino acid 460-802) (P22455 460-802): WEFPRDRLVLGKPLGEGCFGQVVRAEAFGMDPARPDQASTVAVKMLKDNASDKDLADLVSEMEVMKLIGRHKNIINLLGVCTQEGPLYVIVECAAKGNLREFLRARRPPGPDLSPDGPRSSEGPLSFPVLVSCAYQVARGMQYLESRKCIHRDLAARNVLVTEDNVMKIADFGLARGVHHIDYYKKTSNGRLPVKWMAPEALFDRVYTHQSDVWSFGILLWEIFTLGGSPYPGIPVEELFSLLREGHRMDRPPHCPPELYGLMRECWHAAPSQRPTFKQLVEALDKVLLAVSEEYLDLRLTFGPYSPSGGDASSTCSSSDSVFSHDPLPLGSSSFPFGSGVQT
# Description: as §1, §2, §3, §4
Compound,IC50 [2] [nM],IC50 [3] [nM],IC50 [4] [nM],IC50 (Hep3B hepatoma cell line) [nM],IC50 [5] [nM],IC50 [6] [nM],IC50 [7] [nM],anti-tumor activity [1]
"CCN1CCN(c2ccc(Nc3cc(N(C)C(=O)Nc4c(Cl)c(OC)cc(OC)c4Cl)ncn3)cc2)CC1 [BGJ-398, reference compound]",,,,,,,,significant anti-tumor activity
"C=CC(=O)N1CC[C@H](n2nc(C#Cc3cc(OC)cc(OC)c3)c(C(N)=O)c2N)C1 [Compound 7, (S)-1-(1-acryloylpyrrolidin-3-yl)-5-amino-3-((3,5-dimethoxyphenyl)ethynyl)-1H-pyrazole-4-carboxamide]",< 10,< 10,< 10,< 10,< 10,< 10,< 10,
"C=CC(=O)N1CCC(n2nc(C#Cc3cc(OC)cc(OC)c3)c(C(N)=O)c2N)CC1 [Compound 15, 1-(1-acryloylpiperidin-4-yl)-5-amino-3-((3,5-dimethoxyphenyl)ethynyl)-1H-pyrazole-4-carboxamide]",10 to 100,,10 to 100,,100 to 1000,,10 to 100,
"C=CC(=O)N1CC[C@H](n2nc(C#Cc3cc(OC)cc(OC)c3F)c(C(N)=O)c2N)C1 [Compound 17, (S)-1-(1-acryloylpyrrolidin-3-yl)-5-amino-3-((2-fluoro-3,5-dimethoxyphenyl)ethynyl)-1H-pyrazole-4-carboxamide]",< 10,< 10,< 10,< 10,< 10,< 10,< 10,
"C=CC(=O)N1CC[C@H](n2nc(C#Cc3cc(Cl)ccc3F)c(C(N)=O)c2N)C1 [Compound 18, (S)-1-(1-acryloylpyrrolidin-3-yl)-5-amino-3-((5-chloro-2-fluorophenyl)ethynyl)-1H-pyrazole-4-carboxamide]",10 to 100,< 10,< 10,,10 to 100,10 to 100,10 to 100,
"C=CC(=O)N1CC[C@H](n2nc(C#Cc3cc(C(=O)NC)ccc3Cl)c(C(N)=O)c2N)C1 [Compound 19, (S)-1-(1-acryloylpyrrolidin-3-yl)-5-amino-3-((2-chloro-5-(methylcarbamoyl)phenyl)ethynyl)-1H-pyrazole-4-carboxamide]",< 10,10 to 100,< 10,,< 10,,< 10,
"C=CC(=O)N1CC[C@H](n2nc(C#Cc3cc(OC)cc(OC)c3F)c(C(N)=O)c2NC)C1 [Compound 22, (S)-1-(1-acryloylpyrrolidin-3-yl)-3-((2-fluoro-3,5-dimethoxyphenyl)ethynyl)-5-(methylamino)-1H-pyrazole-4-carboxamide]",< 10,< 10,< 10,< 10,< 10,< 10,< 10,
"C=CC(=O)N1CC[C@H](n2nc(C#Cc3cc(Cl)ccc3F)c(C(N)=O)c2NC)C1 [Compound 23, (S)-1-(1-acryloylpyrrolidin-3-yl)-3-((5-chloro-2-fluorophenyl)ethynyl)-5-(methylamino)-1H-pyrazole-4-carboxamide]",< 10,< 10,< 10,< 10,10 to 100,10 to 100,10 to 100,
"C=CC(=O)N1CC[C@H](n2nc(C#Cc3cc(OC)cc(OC)c3)c(C(N)=O)c2NCC2CC2)C1 [Compound 26, (S)-1-(1-acryloylpyrrolidin-3-yl)-5-((cyclopropylmethyl)amino)-3-((3,5-dimethoxyphenyl)ethynyl)-1H-pyrazole-4-carboxamide]",< 10,< 10,< 10,10 to 100,< 10,< 10,< 10,
"C=CC(=O)N1CC[C@H](n2nc(C#Cc3cc(OC)cc(OC)c3)c(C(N)=O)c2NCCO)C1 [Compound 29, (S)-1-(1-acryloylpyrrolidin-3-yl)-3-((3,5-dimethoxyphenyl)ethynyl)-5-((2-hydroxyethyl)amino)-1H-pyrazole-4-carboxamide]",< 10,< 10,< 10,< 10,10 to 100,< 10,10 to 100,
"C=CC(=O)N1CC[C@H](n2nc(C#Cc3cc(OC)cc(OC)c3)c(C(N)=O)c2NCCCN2CCOCC2)C1 [Compound 30, (S)-1-(1-acryloylpyrrolidin-3-yl)-3-((3,5-dimethoxyphenyl)ethynyl)-5-((3-morpholinopropyl)amino)-1H-pyrazole-4-carboxamide]",< 10,< 10,< 10,10 to 100,10 to 100,< 10,10 to 100,

# The next lines start with results.
IC50 [2] [nM],IC50 [3] [nM],IC50 [4] [nM],IC50 (Hep3B hepatoma cell line) [nM],IC50 [5] [nM],IC50 [6] [nM],IC50 [7] [nM],Compound,anti-tumor activity [1]
10 to 100,10 to 100,10 to 100,10 to 100,10 to 100,10 to 100,10 to 100,"C=CC(=O)N1CC[C@H](n2cc(C(N)=O)c(C#Cc3cc(OC)cc(OC)c3)n2)C1 [Compound 1, (S)-1-(1-acryloylpyrrolidin-3-yl)-3-((3,5-dimethoxyphenyl)ethynyl)-1H-pyrazole-4-carboxamide]",
,< 10,,10 to 100,10 to 100,10 to 100,10 to 100,CC#CC(=O)N1CC[C@H](n2nc(C#Cc3cc(OC)cc(OC)c3)c(C(N)=O)c2N)C1 [Compound 10],
< 10,,< 10,100 to 1000,100 to 1000,100 to 1000,10 to 100,"COc1cc(C#Cc2nn([C@H]3CCN(C#N)C3)c(N)c2C(N)=O)cc(OC)c1 [Compound 12, (S)-5-amino-1-(1-cyanopyrrolidin-3-yl)-3-((3,5-dimethoxyphenyl)ethynyl)-1H-pyrazole-4-carboxamide]",
< 10,,10 to 100,,10 to 100,,10 to 100,"C=CC(=O)N1CCC(Cn2nc(C#Cc3cc(OC)cc(OC)c3)c(C(N)=O)c2N)C1 (centres unmarked) [Compound 16, 1-((1-acryloylpyrrolidin-3-yl)methyl)-5-amino-3-((3,5-dimethoxyphenyl)ethynyl)-1H-pyrazole-4-carboxamide]",
< 10,10 to 100,< 10,,< 10,,< 10,"C=CC(=O)N1CC[C@H](n2nc(C#Cc3cc(OC)cc(C(=O)NC)c3)c(C(N)=O)c2N)C1 [Compound 20, (S)-1-(1-acryloylpyrrolidin-3-yl)-5-amino-3-((3-methoxy-5-(methylcarbamoyl)phenyl)ethynyl)-1H-pyrazole-4-carboxamide]",
< 10,< 10,10 to 100,,10 to 100,< 10,10 to 100,"C=CC(=O)N1CC[C@H](n2nc(C#Cc3cc(OC)cc(OC)c3)c(C(N)=O)c2NCCOC)C1 [Compound 28, (S)-1-(1-acryloylpyrrolidin-3-yl)-3-((3,5-dimethoxyphenyl)ethynyl)-5-((2-methoxyethyl)amino)-1H-pyrazole-4-carboxamide]",
< 10,< 10,< 10,10 to 100,10 to 100,< 10,,"C=CC(=O)N1CC[C@H](n2nc(C#Cc3cc(OC)cc(OC)c3)c(C(N)=O)c2NCCN2CCOCC2)C1 [Compound 31, (S)-1-(1-acryloylpyrrolidin-3-yl)-3-((3,5-dimethoxyphenyl)ethynyl)-5-((2-morpholinoethyl)amino)-1H-pyrazole-4-carboxamide]",
